Key:
MDA-MB-231 breast cells = assay: Tumor cell growth assay, combination with CCI-779, MDA-MB-231; format: cell-based, human; conditions: compound 4 at 0.1 μg/ml
Protocol: (§1) Human tumor cell are all obtained from ATCC, and are cultured using standard cell culture methods. Cells are plated in 96-well culture plates at 1000 to 3000 cells per well. One day following plating, cells are treated with various doses of PI3K inhibitor Compound 4 or Compound 5 alone or with a low constant dose of MEK inhibitor 2-(2-chloro-4-iodoanilino)-N-(cycloprorylmethoxy-3,4-difluobenzamide) (1 μg/ml) or UO126 (5 μg/ml). UO126 is also known as 1,4-diamino-2,3-dicyano-1,4-bis[2-aminophenylthio]butadiene. In some experiments, cells are treated alone with various doses of the MEK inhibitor (2-(2-chloro-4-iodoanilino)-N-(cycloprorylmethoxy-3,4-difluobenzamide)), or HER2/neu inhibitor HKI-272, or mTOR inhibitor CCI-779, or with a low constant dose of Compound 4 (0.1 μg/ml). […] Three days after drug treatment, viable cell densities are determined by metabolic conversion (by viable cells) of the dye MTS, an established cell proliferation assay. […] The MTS assay results are read in a 96-well plate reader by measuring absorbance at 490 nm. The effect of each treatment is calculated as percent of control growth relative to the vehicle DMSO-treated cells grown in the same culture plate. […]

[1] = tested on: HER2/Neu-overexpressing MDA361-DYT2 breast tumor cells; assay: Tumor cell growth assay, HKI-272 and combination, MDA361-DYT2; format: cell-based, human; conditions: compound 4 at 0.1 μg/ml; MDA361-DYT2
Protocol: as §1

[2] = tested on: colon carcinoma, NSCLC, DU145 and MDA231 cell lines; assay: Tumor cell growth assay, combination with MEK inhibitors, tumor line panel; format: cell-based, human; conditions: HCT116, HT29, SW620, SW480, LS-174T, Caco2, Lovo, A549, H157, DU145, MDA231
Protocol: as §1

HCT116 cells = assay: Apoptosis assay (Apo-ONE Caspase-3/7), HCT116; format: cell-based, human
Protocol: Cells are plated in a 96-well plate at a density of 3000 cells per well. 24 hr later cells are treated with single agent or combination as indicated. Apoptosis is measured at 24 hr and 48 hr post drug treatment by Apo-ONE Caspase-3/7 assay kit (cat # G7791, Promega Corp.) following the protocol provided by the vendor. Assay mix is added to cells and incubated at room temperature for 3 hours with gentle mixing using a plate shaker. The fluorescence of each well is read using the Victor Wallac Plate Reader. Each experimental plate contains blank wells (without cells) as background fluorescence that is subtracted from all wells to obtain experimental values. Data are expressed as relative fluorescent units (RFLU) or as Apo-ONE units.

HCT116 colon tumor cells = assay: Tumor cell growth assay, combination with MEK inhibitors, HCT116; format: cell-based, human; conditions: MEK inhibitor at low constant dose
Protocol: as §1

[3] = tested on: MDA231 breast tumor cells; assay: Tumor cell growth assay, combination with MEK inhibitor, MDA231; format: cell-based, human
Protocol: as §1

[4] = tested on: non-small cell lung cancer (NSCLC) cell lines; assay: Tumor cell growth assay, combination with MEK inhibitor, NSCLC; format: cell-based, human
Protocol: as §1

[5] = tested on: LNCaP (human prostate carcinoma); assay: Cell proliferation (MTS) assay, LNCaP; format: cell-based; conditions: three days treatment
How it was run: (§2)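 Cells plated at about 3000 per well in RPMI-1640/10% FBS were dosed with compound one day later. Viability was read by MTS conversion (absorbance 490 nm, 1–2 h) three days after treatment began. Effect is expressed as percent of vehicle-treated growth on the same plate.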

[6] = tested on: MDA435 (human breast adenocarcinoma); assay: Cell proliferation (MTS) assay, MDA435; format: cell-based; conditions: three days treatment
How it was run: as §2

Structure (SMILES): COC[C@H]1OC(=O)/C(=C/N(CCO)C(C)(C)C)C2=C(O)C(=O)C3=C([C@H](OC(C)=O)C[C@@]4(C)C3CC[C@@H]4O)[C@]21C (stereo partly drawn) [Compound 4, (1E,4S,4aR,5R,6aS,7S)-1-{[tert-butyl(2-hydroxyethyl)amino]methylene}-7,11-dihydroxy-4-(methoxymethyl)-4a,6a-dimethyl-2,10-dioxo-1,2,4,4a,5,6,6a,7,8,9,9a,10-dodecahydroindeno[4,5-h]isochromen-5-yl acetate]
- growth inhibition in combination with mTOR inhibitor CCI-779 (MDA-MB-231 breast cells): synergistically inhibited growth
- growth inhibition in combination with HER2/neu inhibitor HKI-272 [1]: synergistically inhibited growth
- growth inhibition in combination with MEK inhibitors UO126 and 2-(2-chloro-4-iodoanilino)-N-(cycloprorylmethoxy-3,4-difluobenzamide) [2]: broad synergistic growth inhibition
- induction of apoptosis in combination with MEK inhibitor 2-(2-chloro-4-iodoanilino)-N-(cycloprorylmethoxy-3,4-difluobenzamide) (HCT116 cells): synergistic induction of apoptosis
- growth inhibition in combination with MEK inhibitors (HCT116 colon tumor cells): synergistically inhibited growth
- growth inhibition in combination with MEK inhibitor 2-(2-chloro-4-iodoanilino)-N-(cycloprorylmethoxy-3,4-difluobenzamide) [3]: synergistic growth inhibition
- growth inhibition in combination with MEK inhibitor 2-(2-chloro-4-iodoanilino)-N-(cycloprorylmethoxy-3,4-difluobenzamide) [4]: synergistic growth inhibition
- LNCaP IC50 ([5]; Table 1): 0.09 mg/L
- LNCaP IC50 ([5]; Table 2): 0.05 mg/L
- MDA435 IC50 ([6]; Table 1): 6 mg/L
- MDA435 IC50 ([6]; Table 2): 3.5 mg/L
